Results: patent publication US10272126B2, “Nanoparticle-stabilized microcapsules, dispersions comprising nanoparticle-stabilized microcapsules, and method for the treatment of bacterial biofilms” (The University of Massachusetts, priority 2015, dated 2019)

System: NIH 3T3 fibroblast cells
Test: Biofilm-3T3 fibroblast co-culture: mammalian cell viability (LDH cytotoxicity assay)
Assay type: cell-based
Text: Scatters and lines represent 3T3 fibroblast cell viability. Bars represent log10 of colony forming units in biofilms. The data are average of triplicates and the error bars indicate the standard deviations.
Biofilm infections within wounds interfere with the ability of the host to regenerate damaged tissue. See, e.g., Roy, S.; Elgharably, H.; Sinha, M.; Ganesh, K.; Chaney, S.; Mann, E.; Miller, C.; Khanna, S.; Bergdall, V. K.; Powell, H. M.; et al. Mixed-Species Biofilm Compromises Wound Healing by Disrupting Epidermal Barrier Function. J. Pathol. 2014, 233, 331-343. […] The co-cultures were treated with capsules for 3 hours, washed, and the viabilities of both fibroblasts and bacteria were measured. […]
Testing solutions at different concentrations were made by diluting capsules into DMEM prior to use. […] Co-cultures were then analyzed using a LDH cytotoxicity assay to determine mammalian cell viability according the manufacturer's instructions. See, e.g., Decker, T.; Lohmann-Matthes, M. L. A Quick and Simple Method for the Quantitation of Lactate Dehydrogenase Release in Measurements of Cellular Cytotoxicity and Tumor Necrosis Factor (TNF) Activity. […] The solutions containing dispersed bacteria were then plated onto agar plates and colony forming units were counted after incubation at 37° C. overnight.

peppermint oil
3T3 fibroblast cell viability in co-culture: toxic effects
